We go through one molecule from PMC6509210, “ALK2 inhibitors display beneficial effects in preclinical models of ACVR1 mutant diffuse intrinsic pontine glioma” (Communications Biology, 2019).

In this assay the test system is phospho-SMAD1/5/8 and ID1 in HSJD-DIPG-007 xenograft tumours. The assay is described as follows: Pharmacodynamic biomarkers by Western blot in orthotopic HSJD-DIPG-007 xenograft tumours. The note with it: daily oral administration, end of 28 days. In kind it is in vivo, NOD.SCID mice. On the procedure: Fig. 5 In vivo pharmacokinetics/pharmacodynamics of LDN-193189 (top) and LDN-214117 (bottom). a, e Tolerability in NOD.SCID mice exposed to daily oral treatment with inhibitor over 14 days, as assessed by body weight relative to day 0. Mean and standard deviation of 3 mice per group are plotted. b, f Blood levels of compounds up to 8 h post-exposure to a single oral dose of drug at day 14. Mean and standard deviation of 3 mice per group are plotted. c, g Barplot of compound concentrations in blood (red), plasma (yellow) and brain tissue (blue) 2 h post-exposure to a single oral dose of drug at day 14. […]
For growth factor starvation, cells were washed twice with PBS and then incubated for 1 h in stem cell medium without growth factors. […] Following quantification using Pierce BCA Protein Assay Kit (Thermo Fisher), equal amounts of cell extracts were loaded for Western blot analysis. […] Signal was detected with ECL Prime western blotting detection agent (Amersham Biosciences), visualised using Hyperfilm ECL (Amersham Biosciences) and analysed using an X-ray film processor in accordance with standard protocols. […]

As for `c1ccc2c(-c3cnn4cc(-c5ccc(N6CCNCC6)cc5)cnc34)ccnc2c1` [LDN-193189], the “reduction in pharmacodynamic biomarkers phospho-SMAD1/5/8 and ID1 in tumours” value was “near-ablation of phospho-SMAD1/5/8 and ID1”.
